Laboratory results reported in ChEMBL document CHEMBL2429777, “Synthesis and antibacterial activity evaluation of 2,6-bis(6-substituted-1,2,4-triazolo[3,4-b][1,3,4]thiadiazol-3-yl)pyridine derivatives” (2013).
≈ marks a conversion by molar mass, not a printed value.

test system: Bacillus subtilis; test: Antibacterial activity against Bacillus subtilis by serial dilution method; format: functional

Row | Compound | MIC [µg/mL]
1 | GENTAMICIN | 2
2 | c1cncc(-c2nn3c(-c4cccc(-c5nnc6sc(-c7cccnc7)nn56)n4)nnc3s2)c1 | 128 (≈ 266 µM)
3 | Cc1ccc(-c2nn3c(-c4cccc(-c5nnc6sc(-c7ccc(C)cc7)nn56)n4)nnc3s2)cc1 | > 128
4 | CC1(C)S[C@@H]2[C@H](NC(=O)[C@H](N)c3ccccc3)C(=O)N2[C@H]1C(=O)[O-].[Na+] [AMPICILLIN SODIUM] | 0.5
5 | Cc1nn2c(-c3cccc(-c4nnc5sc(C)nn45)n3)nnc2s1 | > 128
6 | Clc1cccc(-c2nn3c(-c4cccc(-c5nnc6sc(-c7cccc(Cl)c7)nn56)n4)nnc3s2)c1 | 64 (≈ 117 µM)
7 | O=[N+]([O-])c1cccc(-c2nn3c(-c4cccc(-c5nnc6sc(-c7cccc([N+](=O)[O-])c7)nn56)n4)nnc3s2)c1 | 128 (≈ 225 µM)

test system: Bacillus subtilis; test: Antibacterial activity against Bacillus subtilis at 250 ug/tube after 24 hrs by cylinder-plate method; format: functional

Row | Compound | diameter of the inhibition zone (DIZ) [mm]
8 | c1cncc(-c2nn3c(-c4cccc(-c5nnc6sc(-c7cccnc7)nn56)n4)nnc3s2)c1 | 11
9 | Cc1ccc(-c2nn3c(-c4cccc(-c5nnc6sc(-c7ccc(C)cc7)nn56)n4)nnc3s2)cc1 | 10
10 | Cc1nn2c(-c3cccc(-c4nnc5sc(C)nn45)n3)nnc2s1 | 10
11 | Clc1cccc(-c2nn3c(-c4cccc(-c5nnc6sc(-c7cccc(Cl)c7)nn56)n4)nnc3s2)c1 | 13
12 | O=[N+]([O-])c1cccc(-c2nn3c(-c4cccc(-c5nnc6sc(-c7cccc([N+](=O)[O-])c7)nn56)n4)nnc3s2)c1 | 11

test system: Staphylococcus aureus; test: Antibacterial activity against Staphylococcus aureus at 100 ug/tube after 24 hrs by cylinder-plate method; format: functional

Row | Compound | diameter of the inhibition zone (DIZ) [mm]
13 | CC1(C)S[C@@H]2[C@H](NC(=O)[C@H](N)c3ccccc3)C(=O)N2[C@H]1C(=O)[O-].[Na+] [AMPICILLIN SODIUM] | 23

test system: Escherichia coli; test: Antibacterial activity against Escherichia coli by serial dilution method

Row | Compound | MIC [µg/mL]
14 | c1cncc(-c2nn3c(-c4cccc(-c5nnc6sc(-c7cccnc7)nn56)n4)nnc3s2)c1 | 64 (≈ 133 µM)
15 | Cc1ccc(-c2nn3c(-c4cccc(-c5nnc6sc(-c7ccc(C)cc7)nn56)n4)nnc3s2)cc1 | 64 (≈ 126 µM)
16 | Cc1nn2c(-c3cccc(-c4nnc5sc(C)nn45)n3)nnc2s1 | 64 (≈ 180 µM)
17 | Clc1cccc(-c2nn3c(-c4cccc(-c5nnc6sc(-c7cccc(Cl)c7)nn56)n4)nnc3s2)c1 | 64 (≈ 117 µM)
18 | O=[N+]([O-])c1cccc(-c2nn3c(-c4cccc(-c5nnc6sc(-c7cccc([N+](=O)[O-])c7)nn56)n4)nnc3s2)c1 | 64 (≈ 112 µM)

test system: Bacillus subtilis; test: Antibacterial activity against Bacillus subtilis at 100 ug/tube after 24 hrs by cylinder-plate method; format: functional

Row | Compound | inhibition zone (IZ) [mm] | diameter of the inhibition zone (DIZ) [mm]
19 | GENTAMICIN | 22 | 
20 | CC1(C)S[C@@H]2[C@H](NC(=O)[C@H](N)c3ccccc3)C(=O)N2[C@H]1C(=O)[O-].[Na+] [AMPICILLIN SODIUM] |  | 21

test system: Streptococcus pneumoniae; test: Antibacterial activity against Streptococcus pneumoniae at 250 ug/tube after 24 hrs by cylinder-plate method; format: functional

Row | Compound | diameter of the inhibition zone (DIZ) [mm]
21 | c1cncc(-c2nn3c(-c4cccc(-c5nnc6sc(-c7cccnc7)nn56)n4)nnc3s2)c1 | 13
22 | Cc1ccc(-c2nn3c(-c4cccc(-c5nnc6sc(-c7ccc(C)cc7)nn56)n4)nnc3s2)cc1 | 13
23 | Cc1nn2c(-c3cccc(-c4nnc5sc(C)nn45)n3)nnc2s1 | 12
24 | Clc1cccc(-c2nn3c(-c4cccc(-c5nnc6sc(-c7cccc(Cl)c7)nn56)n4)nnc3s2)c1 | 16
25 | O=[N+]([O-])c1cccc(-c2nn3c(-c4cccc(-c5nnc6sc(-c7cccc([N+](=O)[O-])c7)nn56)n4)nnc3s2)c1 | 14

test system: Pseudomonas aeruginosa; test: Antibacterial activity against Pseudomonas aeruginosa by serial dilution method; format: functional

Row | Compound | MIC [µg/mL]
26 | GENTAMICIN | 1
27 | c1cncc(-c2nn3c(-c4cccc(-c5nnc6sc(-c7cccnc7)nn56)n4)nnc3s2)c1 | 128 (≈ 266 µM)
28 | Cc1ccc(-c2nn3c(-c4cccc(-c5nnc6sc(-c7ccc(C)cc7)nn56)n4)nnc3s2)cc1 | > 128
29 | CC1(C)S[C@@H]2[C@H](NC(=O)[C@H](N)c3ccccc3)C(=O)N2[C@H]1C(=O)[O-].[Na+] [AMPICILLIN SODIUM] | 2
30 | Cc1nn2c(-c3cccc(-c4nnc5sc(C)nn45)n3)nnc2s1 | 128 (≈ 360 µM)
31 | Clc1cccc(-c2nn3c(-c4cccc(-c5nnc6sc(-c7cccc(Cl)c7)nn56)n4)nnc3s2)c1 | 64 (≈ 117 µM)
32 | O=[N+]([O-])c1cccc(-c2nn3c(-c4cccc(-c5nnc6sc(-c7cccc([N+](=O)[O-])c7)nn56)n4)nnc3s2)c1 | 128 (≈ 225 µM)

test system: Staphylococcus aureus; test: Antibacterial activity against Staphylococcus aureus at 250 ug/tube after 24 hrs by cylinder-plate method; format: functional

Row | Compound | diameter of the inhibition zone (DIZ) [mm]
33 | c1cncc(-c2nn3c(-c4cccc(-c5nnc6sc(-c7cccnc7)nn56)n4)nnc3s2)c1 | 12
34 | Cc1ccc(-c2nn3c(-c4cccc(-c5nnc6sc(-c7ccc(C)cc7)nn56)n4)nnc3s2)cc1 | 13
35 | Cc1nn2c(-c3cccc(-c4nnc5sc(C)nn45)n3)nnc2s1 | 12
36 | Clc1cccc(-c2nn3c(-c4cccc(-c5nnc6sc(-c7cccc(Cl)c7)nn56)n4)nnc3s2)c1 | 14
37 | O=[N+]([O-])c1cccc(-c2nn3c(-c4cccc(-c5nnc6sc(-c7cccc([N+](=O)[O-])c7)nn56)n4)nnc3s2)c1 | 13

test system: Escherichia coli; test: Antibacterial activity against Escherichia coli at 250 ug/tube after 24 hrs by cylinder-plate method; format: functional

Row | Compound | diameter of the inhibition zone (DIZ) [mm]
38 | c1cncc(-c2nn3c(-c4cccc(-c5nnc6sc(-c7cccnc7)nn56)n4)nnc3s2)c1 | 14
39 | Cc1ccc(-c2nn3c(-c4cccc(-c5nnc6sc(-c7ccc(C)cc7)nn56)n4)nnc3s2)cc1 | 14
40 | Cc1nn2c(-c3cccc(-c4nnc5sc(C)nn45)n3)nnc2s1 | 14
41 | Clc1cccc(-c2nn3c(-c4cccc(-c5nnc6sc(-c7cccc(Cl)c7)nn56)n4)nnc3s2)c1 | 15
42 | O=[N+]([O-])c1cccc(-c2nn3c(-c4cccc(-c5nnc6sc(-c7cccc([N+](=O)[O-])c7)nn56)n4)nnc3s2)c1 | 14

test system: Pseudomonas aeruginosa; test: Antibacterial activity against Pseudomonas aeruginosa at 100 ug/tube after 24 hrs by cylinder-plate method; format: functional

Row | Compound | diameter of the inhibition zone (DIZ) [mm]
43 | CC1(C)S[C@@H]2[C@H](NC(=O)[C@H](N)c3ccccc3)C(=O)N2[C@H]1C(=O)[O-].[Na+] [AMPICILLIN SODIUM] | 17

test system: Pseudomonas aeruginosa; test: Antibacterial activity against Pseudomonas aeruginosa at 250 ug/tube after 24 hrs by cylinder-plate method; format: functional

Row | Compound | diameter of the inhibition zone (DIZ) [mm]
44 | c1cncc(-c2nn3c(-c4cccc(-c5nnc6sc(-c7cccnc7)nn56)n4)nnc3s2)c1 | 13
45 | Cc1ccc(-c2nn3c(-c4cccc(-c5nnc6sc(-c7ccc(C)cc7)nn56)n4)nnc3s2)cc1 | 10
46 | Cc1nn2c(-c3cccc(-c4nnc5sc(C)nn45)n3)nnc2s1 | 12
47 | Clc1cccc(-c2nn3c(-c4cccc(-c5nnc6sc(-c7cccc(Cl)c7)nn56)n4)nnc3s2)c1 | 14
48 | O=[N+]([O-])c1cccc(-c2nn3c(-c4cccc(-c5nnc6sc(-c7cccc([N+](=O)[O-])c7)nn56)n4)nnc3s2)c1 | 12

test system: Streptococcus pneumoniae; test: Antibacterial activity against Streptococcus pneumoniae by serial dilution method; format: functional

Row | Compound | MIC [µg/mL]
49 | GENTAMICIN | 2
50 | c1cncc(-c2nn3c(-c4cccc(-c5nnc6sc(-c7cccnc7)nn56)n4)nnc3s2)c1 | 128 (≈ 266 µM)
51 | Cc1ccc(-c2nn3c(-c4cccc(-c5nnc6sc(-c7ccc(C)cc7)nn56)n4)nnc3s2)cc1 | 128 (≈ 252 µM)
52 | CC1(C)S[C@@H]2[C@H](NC(=O)[C@H](N)c3ccccc3)C(=O)N2[C@H]1C(=O)[O-].[Na+] [AMPICILLIN SODIUM] | 2
53 | Cc1nn2c(-c3cccc(-c4nnc5sc(C)nn45)n3)nnc2s1 | 128 (≈ 360 µM)
54 | Clc1cccc(-c2nn3c(-c4cccc(-c5nnc6sc(-c7cccc(Cl)c7)nn56)n4)nnc3s2)c1 | 32 (≈ 58.3 µM)
55 | O=[N+]([O-])c1cccc(-c2nn3c(-c4cccc(-c5nnc6sc(-c7cccc([N+](=O)[O-])c7)nn56)n4)nnc3s2)c1 | 64 (≈ 112 µM)

test system: Escherichia coli; test: Antibacterial activity against Escherichia coli at 100 ug/tube after 24 hrs by cylinder-plate method; format: functional

Row | Compound | diameter of the inhibition zone (DIZ) [mm]
56 | CC1(C)S[C@@H]2[C@H](NC(=O)[C@H](N)c3ccccc3)C(=O)N2[C@H]1C(=O)[O-].[Na+] [AMPICILLIN SODIUM] | 17

test system: Staphylococcus aureus; test: Antibacterial activity against Staphylococcus aureus by serial dilution method; format: functional

Row | Compound | MIC [µg/mL]
57 | GENTAMICIN | 2
58 | c1cncc(-c2nn3c(-c4cccc(-c5nnc6sc(-c7cccnc7)nn56)n4)nnc3s2)c1 | 128 (≈ 266 µM)
59 | Cc1ccc(-c2nn3c(-c4cccc(-c5nnc6sc(-c7ccc(C)cc7)nn56)n4)nnc3s2)cc1 | 128 (≈ 252 µM)
60 | CC1(C)S[C@@H]2[C@H](NC(=O)[C@H](N)c3ccccc3)C(=O)N2[C@H]1C(=O)[O-].[Na+] [AMPICILLIN SODIUM] | 1
61 | Cc1nn2c(-c3cccc(-c4nnc5sc(C)nn45)n3)nnc2s1 | 128 (≈ 360 µM)
62 | Clc1cccc(-c2nn3c(-c4cccc(-c5nnc6sc(-c7cccc(Cl)c7)nn56)n4)nnc3s2)c1 | 64 (≈ 117 µM)
63 | O=[N+]([O-])c1cccc(-c2nn3c(-c4cccc(-c5nnc6sc(-c7cccc([N+](=O)[O-])c7)nn56)n4)nnc3s2)c1 | 128 (≈ 225 µM)

test system: Streptococcus pneumoniae; test: Antibacterial activity against Streptococcus pneumoniae at 100 ug/tube after 24 hrs by cylinder-plate method; format: functional

Row | Compound | inhibition zone (IZ) [mm] | diameter of the inhibition zone (DIZ) [mm]
64 | GENTAMICIN | 21 | 
65 | CC1(C)S[C@@H]2[C@H](NC(=O)[C@H](N)c3ccccc3)C(=O)N2[C@H]1C(=O)[O-].[Na+] [AMPICILLIN SODIUM] |  | 18
